# Experimental data: US20150315218A1, “SALTS OF PRODRUGS OF PIPERAZINE AND SUBSTITUTED PIPERIDINE ANTIVIRAL AGENTS” (Bristol-Myers Squibb Company, priority 2004, published 2015)
# Like-named read-outs stand apart in the source and are kept apart here.
# Key:
# [1] = Single-dose toxicokinetic and tolerability study of prodrugs in dogs; assay type: in vivo, dog; settings: for AUC(0-inf) / concentration at 24 h / Cmax: dog, plasma; for concentration at 24 h: read-out: C24h
# Description: A multi-phase study was conducted to evaluate the tolerability of the prodrug, Iab (monolysine salt) at dosages of 24, 90, or 240 mg/kg (free acid, molar equivalent to 19, 71, or 190 mg/kg of parent IVa, respectively) and the toxicokinetics of lab and IVa (4). Iab was administered to two female dogs/group once daily either as an aqueous solution (24 or 90 mg/kg) or dry-filled capsules (24, 90 [once and twice daily] or 240 mg/kg). The endpoints were: clinical signs, body weight, food consumption, and plasma toxicokinetics of lab and IVa. In all cases, a 1-week washout period was used between doses for all phases of the study. […]
# On day 1, Icb was administered to one dog/sex/group once daily in dry-filled capsules at the above dosages. A 1-week washout period was used between doses in the study. On day 8, Icb was administered to one dog/sex/group once daily as an aqueous solution at 25 mg/kg or twice daily in dry-filled capsules at 46 or 125 mg/kg BID.
# [2] = IV and PO pharmacokinetic studies of prodrug salts (Iab, Ibb, Icb) in the dog, with historical parent data; assay type: in vivo, beagle dogs; settings: plasma; for AUC: read-out: AUCtot; for concentration at 24 hr: read-out: C-24 hr; for Cmax: read-out: Cmax
# Description: The IV and PO studies of Iab were conducted in a crossover fashion in three male beagle dogs (11±1.1 kg, Marshall Farms USA Inc., North Rose, N.Y.). There was a two-week washout period between the IV and PO studies.
# (§1) In the IV study, Iab was infused via the cephalic vein at 1.2 mg/kg (free acid, or 0.95 mg/kg of IVa equivalent) over 5 min at a constant rate of 0.1 mL/kg/min. The concentration of the dosing solution was 2.4 mg/mL, and the dosing volume was 0.5 mL/kg. Serial blood samples were collected from the femoral artery before dosing and at 5, 10, 15, 30, 45 min, 1, 2, 4, 6, 8 and 24 hr after dosing.
# In the PO study, the dogs were fasted overnight before dosing. Iab was administered by oral gavage at 6.6 mg/kg (free acid, or 5.2 mg/kg of IVa equivalent). The concentration of the dosing solution was 13.2 mg/mL, and the dosing volume was 0.5 mL/kg. Serial blood samples were collected before dosing and at 15, 30, 45 min, 1, 2, 4, 6, 8 and 24 hr after dosing.
# The IV and PO studies of Ibb were conducted in male beagle dogs (10±0.78 kg, Marshall Farms USA Inc., North Rose, N.Y.). Three dogs were used in each study. Of the three dogs, two same dogs were used for both IV and PO studies. There was a two-week washout period between the IV and PO studies.
# The concentration of the dosing solution was 2.6 mg/mL, and the dosing volume was 0.5 mL/kg. Serial blood samples were collected from the femoral artery before dosing and at 5, 10, 15, 30, 45 min, 1, 2, 4, 6, 8 and 24 hr after dosing.
# In the PO study, the dogs were fasted overnight before dosing. […] The concentration of the dosing solution was 7.0 mg/mL, and the dosing volume was 1 mL/kg. Serial blood samples were collected before dosing and at 15, 30, 45 min, 1, 2, 4, 6, 8 and 24 hr after dosing.
# The IV and PO studies of Icb were conducted in a crossover fashion in three male beagle dogs (12±2.8 kg, Marshall Farms USA Inc., North Rose, N.Y.). There was a two-week washout period between the IV and PO studies.
# as §1, with “Icb” for “Iab”, “1.3” for “1.2”, “1.0” for “0.95”, “IVe” for “IVa”, “2.6” for “2.4”
# In the PO study, the dogs were fasted overnight before dosing. […] The concentration of the dosing solution was 12 mg/mL, and the dosing volume was 0.5 mL/kg. Serial blood samples were collected before dosing and at 15, 30, 45 min, 1, 2, 4, 6, 8 and 24 hr after dosing.
# [3] = Single-dose oral toxicokinetic study of prodrugs in rats; assay type: in vivo, rat; settings: for concentration at 24 h / Cmax / AUC: male, CD, rat, plasma; for concentration at 24 h: oral, read-out: C24 h; for Cmax / AUC: po
# Description: A 1-day oral toxicokinetic study in rats was conducted using the prodrug Iab (monolysine salt). Iab was administered at dosages of 16, 72, and 267 mg/kg (free acid) by oral gavage to three male rats/group using water as the vehicle (solution formulation). The dosages of prodrug free acid correspond to IVa (parent) molar equivalent dosages of 13, 57, and 211 mg/kg, respectively. The endpoint evaluated was plasma toxicokinetics of Iab and IVa in the individual rats.
# A 1-day oral toxicokinetic study in rats was conducted by using the prodrug Ibb (monolysine salt). Ibb was administered at dosages of 19, 64, and 236 mg/kg (free acid) by oral gavage to three male rats/group using water as the vehicle (solution formulation).
# A 1-day oral toxicokinetic study in rats was conducted using the prodrug Icb (disodium salt). Icb was administered at dosages of 5, 25, and 200 mg/kg (free acid) by oral gavage to three male rats/group using water as the vehicle (solution formulation).
# [4] = female, 25 mg/kg, dog 2201F, day 8, Icb 25 mg/kg QD aqueous solution
# [5] = female, po, 25 mg/kg, dog 2201F, day 1, Icb 25 mg/kg (IVc equiv. 20) QD dry-filled capsules
# [6] = female, po, 46 mg/kg, dog 3201F, day 8, Icb 46 mg/kg BID dry-filled capsules
# [7] = female, po, 92 mg/kg, dog 3201F, day 1, Icb 92 mg/kg (IVc equiv. 75) QD dry-filled capsules
# [8] = female, po, 125 mg/kg, dog 4201F, day 8, Icb 125 mg/kg BID dry-filled capsules, emesis
# [9] = female, po, 250 mg/kg, dog 4201F, day 1, Icb 250 mg/kg (IVc equiv. 203) QD dry-filled capsules, emesis
# [10] = male, 25 mg/kg, dog 2101M, day 8, Icb 25 mg/kg QD aqueous solution
# [11] = male, po, 25 mg/kg, dog 2101M, day 1, Icb 25 mg/kg (IVc equiv. 20) QD dry-filled capsules
# [12] = male, po, 46 mg/kg, dog 3101M, day 8, Icb 46 mg/kg BID dry-filled capsules
# [13] = male, po, 92 mg/kg, dog 3101M, day 1, Icb 92 mg/kg (IVc equiv. 75) QD dry-filled capsules, emesis
# [14] = male, po, 125 mg/kg, dog 4101M, day 8, Icb 125 mg/kg BID dry-filled capsules, emesis
# [15] = male, po, 250 mg/kg, dog 4101M, day 1, Icb 250 mg/kg (IVc equiv. 203) QD dry-filled capsules, emesis
smiles,measurement,setting,value
COc1cnc(-n2cnc(C)n2)c2[nH]cc(C(=O)C(=O)N3CCN(C(=O)c4ccccc4)CC3)c12 [IVc],time post-second dose at which mean Cmax of parent was achieved,"[1]; dogs, BID dosing of prodrug",1 to 2 h
same,time post-dose at which mean Cmax of parent was achieved,"[1]; dogs, once daily (QD) dosing of prodrug",1 to 2 h
same,AUC(0-inf),[1]; [4],173 µM·h
same,concentration at 24 h,[1]; [4],0.107 µM
same,concentration at 24 h,"[1]; female, oral, 25 mg/kg, dog 2201F, day 1, Icb 25 mg/kg (IVc equiv. 20) QD dry-filled capsules",0.688 µM
same,Cmax,"[1]; female, oral, 25 mg/kg, dog 2201F, day 8, Icb 25 mg/kg QD aqueous solution",46.8 µM
same,concentration at 24 h,"[1]; female, oral, 46 mg/kg, dog 3201F, day 8, Icb 46 mg/kg BID dry-filled capsules",0.307 µM
same,concentration at 24 h,"[1]; female, oral, 92 mg/kg, dog 3201F, day 1, Icb 92 mg/kg (IVc equiv. 75) QD dry-filled capsules",0.202 µM
same,concentration at 24 h,"[1]; female, oral, 125 mg/kg, dog 4201F, day 8, Icb 125 mg/kg BID dry-filled capsules",1.96 µM
same,concentration at 24 h,"[1]; female, oral, 250 mg/kg, dog 4201F, day 1, Icb 250 mg/kg (IVc equiv. 203) QD dry-filled capsules",0.704 µM
same,AUC(0-inf),[1]; [5],122 µM·h
same,Cmax,[1]; [5],24.6 µM
same,AUC(0-inf),[1]; [6],490 µM·h
same,Cmax,[1]; [6],104 µM
same,AUC(0-inf),[1]; [7],730 µM·h
same,Cmax,[1]; [7],157 µM
same,AUC(0-inf),[1]; [8],596 µM·h
same,Cmax,[1]; [8],96.9 µM
same,AUC(0-inf),[1]; [9],523 µM·h
same,Cmax,[1]; [9],88.9 µM
same,AUC(0-inf),[1]; [10],362 µM·h
same,concentration at 24 h,[1]; [10],0.547 µM
same,concentration at 24 h,"[1]; male, oral, 25 mg/kg, dog 2101M, day 1, Icb 25 mg/kg (IVc equiv. 20) QD dry-filled capsules",0.008 µM
same,Cmax,"[1]; male, oral, 25 mg/kg, dog 2101M, day 8, Icb 25 mg/kg QD aqueous solution",59.4 µM
same,concentration at 24 h,"[1]; male, oral, 46 mg/kg, dog 3101M, day 8, Icb 46 mg/kg BID dry-filled capsules",10.6 µM
same,concentration at 24 h,"[1]; male, oral, 92 mg/kg, dog 3101M, day 1, Icb 92 mg/kg (IVc equiv. 75) QD dry-filled capsules",1.9 µM
same,concentration at 24 h,"[1]; male, oral, 125 mg/kg, dog 4101M, day 8, Icb 125 mg/kg BID dry-filled capsules",54.2 µM
same,concentration at 24 h,"[1]; male, oral, 250 mg/kg, dog 4101M, day 1, Icb 250 mg/kg (IVc equiv. 203) QD dry-filled capsules",2.61 µM
same,AUC(0-inf),[1]; [11],365 µM·h
same,Cmax,[1]; [11],65.1 µM
same,AUC(0-inf),[1]; [12],1140 µM·h
same,Cmax,[1]; [12],121 µM
same,AUC(0-inf),[1]; [13],820 µM·h
same,Cmax,[1]; [13],117 µM
same,AUC(0-inf),[1]; [14],3780 µM·h
same,Cmax,[1]; [14],226 µM
same,AUC(0-inf),[1]; [15],739 µM·h
same,Cmax,[1]; [15],92.6 µM
same,bioavailability,"[2]; beagle, historical parent, PO 5 mg/kg, read-out: Bioavailability (%)",89%
same,Tmax,"[2]; beagle, historical parent, PO 5 mg/kg, read-out: Tmax (hr), PO",1.3 h
same,AUC,"[2]; male, beagle, iv, 1.28 mg/kg",9.8 ± 3.6 µM·h
same,bioavailability,"[2]; male, beagle, oral prodrug, read-out: Bioavailability (%) of parent from prodrug",104%
same,bioavailability,"[2]; male, beagle, oral, 6.05 mg/kg, read-out: Bioavailability",104%
same,concentration at 24 hr,"[2]; male, beagle, oral, 6.05 mg/kg",0.22 ± 0.16 µM
same,Tmax,"[2]; male, beagle, parent after oral prodrug (~5 mg/kg parent equivalent), read-out: Tmax (hr), PO",0.58 h
same,AUC,"[2]; male, beagle, po, 6.05 mg/kg",72 ± 27 µM·h
same,Cmax,"[2]; male, beagle, po, 6.05 mg/kg",16 ± 3.9 µM
same,Tmax,"[2]; male, beagle, po, 6.05 mg/kg, read-out: Tmax",0.58 ± 0.38 h
same,AUC,"[2]; iv, 1 mg/kg",14 ± 2.5 µM·h
same,MRT,"[2]; iv, 1 mg/kg, read-out: MRT",6.3 ± 1.9 h
same,Vd,"[2]; iv, 1 mg/kg, read-out: Vdss",0.93 ± 0.14 L/kg
same,concentration at 24 hr,"[2]; oral, 5 mg/kg",0.15 ± 0.027 µM
same,AUC,"[2]; po, 5 mg/kg",63 ± 2.4 µM·h
same,bioavailability,"[2]; po, 5 mg/kg, read-out: Bioavailability",89 ± 12%
same,Cmax,"[2]; po, 5 mg/kg",9.6 ± 0.87 µM
same,Tmax,"[2]; po, 5 mg/kg, read-out: Tmax",1.3 ± 0.58 h
same,concentration at 24 h,[3]; 5 mg/kg,0.029 µM
same,concentration at 24 h,[3]; 25 mg/kg,0.35 µM
same,concentration at 24 h,[3]; 200 mg/kg,58 µM
same,Cmax,[3]; 5 mg/kg,29 µM
same,AUC,"[3]; 5 mg/kg, read-out: AUC from zero to ∞",109 µM·h
same,Cmax,[3]; 25 mg/kg,98 µM
same,AUC,"[3]; 25 mg/kg, read-out: AUC from zero to ∞",586 µM·h
same,AUC,[3]; 200 mg/kg,2920 µM·h
same,Cmax,[3]; 200 mg/kg,281 µM
same,time post-dose at which mean maximum plasma concentration (Cmax) was achieved,"[3]; rats, single oral dose of prodrug",≤ 1.7 h
